Laboratory results taken from patent US20150031102A1, “METHODS AND COMPOSITIONS FOR ENHANCED PRODUCTION OF BUTANOL BY CLOSTRIDIA” (Butrolix LLC, priority 2012, published 2015).
Entries after “also recorded” stand apart in the source; their conditions may differ. Marks after values point to notes of the source that are not given here.

Key:
[1] = system: C. acetobutylicum; assay: Calculated optimum peptide treatment level (polynomial curve fitted to butanol concentration vs treatment level per culture transfer); assay type: cell-based, Clostridium acetobutylicum; settings: for Calculated optimum peptide treatment level: first experiment using BP110517
Description: FIG. 20. Calculation of optimum peptide treatment level for transfer 13 of the first experiment that tested peptide BP110517 (SEQ ID NO:143) (see Table 1 for data). The four butanol concentration data points were graphed against the treatment levels and a polynomial curve was fitted to the graph.
The data from the sequential batch culture experiments treated with peptides BP110517 and BP1106213 were used to calculate optimum peptide treatment levels for enhanced butanol production by C. acetobutylicum. The calculation was made for each culture transfer using the butanol concentration results from control and experimental wells. The four data points for each culture transfer were graphed against the treatment levels, and a polynomial curve was fitted to the graph.
Then, the first derivative of the polynomial fitted to the data for each culture transfer was solved for “x”, which was the maximum point of the fitted polynomial curve (Table 46). The resulting peptide concentration value was assumed to be close to an optimum peptide treatment level that would result in enhanced butanol production.

[2] = system: C. acetobutylicum; assay: Time course study of replicate 250 mL batch cultures (growth, butanol, residual glucose, yield, productivity); assay type: cell-based, Clostridium acetobutylicum; settings: for Residual glucose / Butanol yield from glucose / Butanol productivity: 50 nM peptide; for Residual glucose: initial glucose 60 g/L, average ± SD of triplicate; for Butanol yield from glucose: starting glucose 60 g/L; for Butanol concentration: Treated, average and standard deviation of triplicate samples
Procedure: Subsequently, time-course studies were conducted using the optimum peptide treatment level that was determined by the sequential batch transfer experiments. Untreated and peptide-treated cultures were grown in triplicate 250 mL batches that were inoculated with […] of the ninth sequential transfer from 24-well culture plates. The 1/1000 ratio of inoculum to culture volume was the same as that used throughout the prior sequential batch transfer experiments, and the replicate time course batch cultures corresponded to the 10th sequential batch transfer. Samples were recovered from the triplicate control and experimental batches a regular time intervals up to 96 hours of culture. Optical density of the replicates was measured and culture supernatants were recovered following centrifugation and analyzed later for butanol and residual glucose concentrations. The analyses were used to calculate yield and productivity of the cultures.
Clostridium acetobutylicum strain ATCC 824 was used in all experiments and the growth medium used for sequential batch transfer, time course, and continuous culture experiments contained yeast extract, casamino acids, L-cysteine, L-asparagine, phosphate buffer, trace minerals, and 6% glucose. What are believed to be quorum-sensing peptides that were used in the experiments were chemically synthesized peptides SEQ ID NO: 143 (amino acid sequence: SYPGWSW) and SEQ ID NO: 144 (amino acid sequence: ILILISG). Routine growth of the bacteria as well as the sequential batch and time course experiments were conducted in a Form a Scientific Model 1029 anaerobic gas chamber at 32° C. Continuous cultures were performed at 32° C. using duplicate New Brunswick Scientific BioFlo 3000 apparati with a dilution rate of 0.01 volume per hour, 75 rpm agitation, and nitrogen gas sparging. Optical density of culture samples was measured at 600 nm in a Beckman DU 600 series spectrophotometer and glucose was analyzed using a YSI Model 2700 Select Biochemistry Analyzer with internal glucose calibration. Butanol concentrations were determined by measuring experimental and standard samples using a Varian Saturn 3 Gas Chromatograph/Mass Spectrometer and calculating butanol concentrations using standard curves.
(§1) The study was started by inoculating triplicate 250 mL batches of untreated and peptide-treated medium with 250 μL of the corresponding ninth sequential transfer from 24-well culture plates. Therefore, the replicate time course batch cultures corresponded to the 10th sequential batch transfer. Samples were recovered from the triplicate control and experimental batches at regular time intervals up to 96 hours of culture for measurement of optical density at 600 nm and analysis of butanol and residual glucose concentrations.
as §1, with “Like the previous time course experiment, this” for “The”, “As before, samples” for “Therefore, the replicate time course batch cultures corresponded to the 10th sequential batch transfer. Samples”, “density” for “density at 600 nm”

SYPGWSW [peptide SEQ ID NO: 143]
Calculated Optimum Peptide Level, Average ([1]; average over culture transfers, Expt. 1): 48.5 ± 9.9 nM | Calculated Optimum Peptide Level, Average ([1]; average over culture transfers, Expt. 2): 43.9 ± 31.6 nM | Average optimum peptide treatment level ([1]; average over culture transfers, both experiments for BP110517, single non-inhibitory experiment for BP1106213, fairly large standard deviations): mid to high 40 | Calculated optimum peptide treatment level ([1]; transfer 4): 38.7 nM | Calculated optimum peptide treatment level ([1]; transfer 22): 62.9 nM | Calculated Optimum Peptide Level ([1]; transfer 4, Expt. 1): 38.7 nM | Calculated Optimum Peptide Level ([1]; transfer 7, Expt. 1): 37.3 nM | Calculated Optimum Peptide Level ([1]; transfer 7, Expt. 2): 100 nM | Calculated Optimum Peptide Level ([1]; transfer 10, Expt. 1): 56.6 nM | Calculated Optimum Peptide Level ([1]; transfer 10, Expt. 2): 35.6 nM | Calculated Optimum Peptide Level ([1]; transfer 13, Expt. 1): 40.4 nM | Calculated Optimum Peptide Level ([1]; transfer 13, Expt. 2): 28.6 nM | Calculated Optimum Peptide Level ([1]; transfer 16, Expt. 1): 51.2 nM | Calculated Optimum Peptide Level ([1]; transfer 16, Expt. 2): 26.8 nM | Calculated Optimum Peptide Level ([1]; transfer 19, Expt. 1): 52.5 nM | Calculated Optimum Peptide Level ([1]; transfer 19, Expt. 2): 28.3 nM | Calculated Optimum Peptide Level ([1]; transfer 22, Expt. 1): 62.9 nM | Residual glucose ([2]; 0 hours): 53.7 ± 0.9 g/L | Butanol yield from glucose ([2]; 0 hours): 0.001 g butanol/g glucose | Residual glucose ([2]; 6 hours): 56.2 ± 0.4 g/L | Butanol yield from glucose ([2]; 6 hours): 0.001 g butanol/g glucose | Residual glucose ([2]; 12 hours): 56.1 ± 0.7 g/L | Butanol yield from glucose ([2]; 12 hours): 0.001 g butanol/g glucose | Residual glucose ([2]; 18 hours): 54.7 ± 0.2^c g/L | Butanol yield from glucose ([2]; 18 hours): 0.002 g butanol/g glucose | Residual glucose ([2]; 21 hours): 52.0 ± 0.3 g/L | Butanol yield from glucose ([2]; 21 hours): 0.002 g butanol/g glucose | Residual glucose ([2]; 24 hours): 49.7 ± 0.5^c g/L | Butanol yield from glucose ([2]; 24 hours): 0.003 g butanol/g glucose | Residual glucose ([2]; 27 hours): 46.4 ± 0.4 g/L | Butanol yield from glucose ([2]; 27 hours): 0.007 g butanol/g glucose | Residual glucose ([2]; 30 hours): 46.6 ± 0.4 g/L | Butanol yield from glucose ([2]; 30 hours): 0.011 g butanol/g glucose | Residual glucose ([2]; 33 hours): 45.9 ± 0.6 g/L | Butanol yield from glucose ([2]; 33 hours): 0.032 g butanol/g glucose | Residual glucose ([2]; 36 hours): 46.2 ± 0.5 g/L | Butanol yield from glucose ([2]; 36 hours): 0.032 g butanol/g glucose | Residual glucose ([2]; 48 hours): 45.7 ± 0.3 g/L | Butanol yield from glucose ([2]; 48 hours): 0.033 g butanol/g glucose | Residual glucose ([2]; 72 hours): 45.8 ± 0.1 g/L | Butanol yield from glucose ([2]; 72 hours): 0.028 g butanol/g glucose | Residual glucose ([2]; 96 hours): 45.8 ± 0.2^c g/L | Butanol yield from glucose ([2]; 96 hours): 0.029 g butanol/g glucose | Butanol productivity ([2]; sampling interval ending at 6 hours): 0.000 g butanol/L-h | Butanol productivity ([2]; sampling interval ending at 12 hours): 0.000 g butanol/L-h | Butanol productivity ([2]; sampling interval ending at 18 hours): 0.010 g butanol/L-h | Butanol productivity ([2]; sampling interval ending at 21 hours): 0.004 g butanol/L-h | Butanol productivity ([2]; sampling interval ending at 24 hours): 0.024 g butanol/L-h | Butanol productivity ([2]; sampling interval ending at 27 hours): 0.074 g butanol/L-h | Butanol productivity ([2]; sampling interval ending at 30 hours): 0.069 g butanol/L-h | Butanol productivity ([2]; sampling interval ending at 33 hours): 0.377 g butanol/L-h | Butanol productivity ([2]; sampling interval ending at 36 hours): 0.002 g butanol/L-h | Butanol productivity ([2]; sampling interval ending at 48 hours): 0.002 g butanol/L-h | Butanol productivity ([2]; sampling interval ending at 72 hours): −0.011 g butanol/L-h | Butanol productivity ([2]; sampling interval ending at 96 hours): 0.002 g butanol/L-h | Butanol concentration relative to untreated cultures ([2]; 50 nM, 33 hours): more than double | Yield of butanol relative to untreated cultures ([2]; 50 nM, 33 hours): more than double | Butanol yield increase compared to untreated culture ([2]; 50 nM, end of the study (96 hours of growth)): 53% | Butanol productivity relative to untreated cultures ([2]; 50 nM, peak butanol formation stage (between 24 and 33 hours), listed as BP110517): nearly doubled; also recorded: more than doubled | Increase in butanol yield ([2]; BP110517, batch cultures (summary of findings)): more than 50% | Butanol concentration ([2]; 50 nM, 0 hours): 0.06 ± 0.00 g/L | Butanol concentration ([2]; 50 nM, 6 hours): 0.06 ± 0.00 g/L | Butanol concentration ([2]; 50 nM, 12 hours): 0.06 ± 0.00 g/L | Butanol concentration ([2]; 50 nM, 18 hours): 0.09 ± 0.00^c g/L | Butanol concentration ([2]; 50 nM, 21 hours): 0.10 ± 0.00 g/L | Butanol concentration ([2]; 50 nM, 24 hours): 0.17 ± 0.01^c g/L | Butanol concentration ([2]; 50 nM, 27 hours): 0.39 ± 0.03^c g/L | Butanol concentration ([2]; 50 nM, 30 hours): 0.60 ± 0.03^c g/L | Butanol concentration ([2]; 50 nM, 33 hours): 1.73 ± 0.27^c g/L | Butanol concentration ([2]; 50 nM, 36 hours): 1.74 ± 0.16 g/L | Butanol concentration ([2]; 50 nM, 48 hours): 1.76 ± 0.26^c g/L | Butanol concentration ([2]; 50 nM, 72 hours): 1.48 ± 0.29 g/L | Butanol concentration ([2]; 50 nM, 96 hours): 1.53 ± 0.29 g/L
